In ChEMBL document CHEMBL1129011, “Novel 4,4-bis(trifluoromethyl) imidazolines as stereospecific and orally active acyl coa: Cholesterol acyltransferase (ACAT) inhibitors and antihypercholesterolemic agents” (Bioorg Med Chem Lett, 1996):

Tests used:
[1] = Compound was evaluated for the inhibition of J774 macrophage cell culture Acyl coenzyme A:cholesterol acyltransferase; type: cell-based
[2] = species: Oryctolagus cuniculus; assay: Antihypercholesterolemic value for the compound was determined; type: functional
[3] = test system: Oryctolagus cuniculus; assay: Percent reduction in serum cholesterol was determined by the oral administration in methylcellulose vehicle at a dose of 5 mg/kg/day for 4 day; type: functional
[4] = species: Oryctolagus cuniculus; assay: Antihypercholesterolemic value for the compound was determined in rabbits; type: functional
[5] = test system: Oryctolagus cuniculus; assay: Percent reduction in serum cholesterol was determined by the oral administration in methylcellulose vehicle at a dose of 2.5 mg/kg/day for 7 days; type: functional

## CN(C(=O)c1ccc(C#N)cc1)[C@@H]1N(C)C(c2ccc(C#N)cc2)=NC1(C(F)(F)F)C(F)(F)F
[1]
  IC50: 54 µM
[2]
  AHV: 15%
[3]
  Reduction: 12%

## CN(C(=O)c1ccc(C#N)cc1)C1N(C)C(c2ccc(C#N)cc2)=NC1(C(F)(F)F)C(F)(F)F (centres undefined)
[1]
  IC50: 16 µM
[4]
  AHV: >90%
[5]
  Reduction: 79%

## CN(C(=O)c1ccc(C#N)cc1)[C@H]1N(C)C(c2ccc(C#N)cc2)=NC1(C(F)(F)F)C(F)(F)F
[1]
  IC50: 11 µM
[2]
  AHV: 90%
[3]
  Reduction: 75%
